Test results: the NIST ThermoML archive (doi:10.1021/acs.jced.6b00350)
Where “and” joins values, the source holds several entries; their conditions need not be identical. Identical values can stand only once.

Conditions: Liquid, Hot wire method

FC(F)CC(F)(F)F [1,1,1,3,3-pentafluoropropane]
Conditions	thermal conductivity
283.24 K, 29153 kPa	0.1046 W/m/K
283.25 K, 29157 kPa	0.1041 W/m/K
283.29 K, 22330 kPa	0.1022 W/m/K
283.3 K, 22338 kPa	0.102 W/m/K
283.31 K, 16102 kPa	0.09978 W/m/K
283.34 K, 10490 kPa	0.09781 W/m/K
283.35 K, 10482 kPa	0.09779 W/m/K
283.39 K, 5078 kPa	0.09561 W/m/K
283.39 K, 5084 kPa	0.09578 W/m/K
283.4 K, 124 kPa	0.09369 W/m/K
297.28 K, 238 kPa	0.08846 W/m/K and 0.0884 W/m/K
297.3 K, 6681 kPa	0.09147 W/m/K
297.31 K, 6682 kPa	0.09132 W/m/K
297.33 K, 12567 kPa	0.09379 W/m/K
297.33 K, 12571 kPa	0.09396 W/m/K
297.36 K, 12582 kPa	0.09405 W/m/K
297.37 K, 12586 kPa	0.09376 W/m/K
297.49 K, 19332 kPa	0.09652 W/m/K
297.49 K, 19337 kPa	0.09665 W/m/K
297.69 K, 229 kPa	0.08847 W/m/K
297.69 K, 239 kPa	0.0881 W/m/K
297.7 K, 6677 kPa	0.0909 W/m/K and 0.09107 W/m/K
297.72 K, 12571 kPa	0.09392 W/m/K
297.73 K, 12572 kPa	0.0939 W/m/K
297.75 K, 12582 kPa	0.09397 W/m/K
297.75 K, 12583 kPa	0.09395 W/m/K
297.86 K, 19322 kPa	0.09664 W/m/K
297.86 K, 19340 kPa	0.09658 W/m/K
298.13 K, 233 kPa	0.08778 W/m/K
298.14 K, 234 kPa	0.08789 W/m/K
298.14 K, 6680 kPa	0.09232 W/m/K and 0.09104 W/m/K
298.14 K, 12568 kPa	0.09369 W/m/K
298.14 K, 12571 kPa	0.09358 W/m/K
298.17 K, 12583 kPa	0.09365 W/m/K
298.18 K, 12574 kPa	0.09352 W/m/K
298.26 K, 19324 kPa	0.09657 W/m/K
298.27 K, 19334 kPa	0.09654 W/m/K
298.58 K, 12568 kPa	0.09385 W/m/K
298.59 K, 12563 kPa	0.09379 W/m/K
298.6 K, 6668 kPa	0.09111 W/m/K
298.6 K, 6673 kPa	0.0911 W/m/K
298.61 K, 230 kPa	0.08804 W/m/K
298.61 K, 234 kPa	0.08787 W/m/K
298.62 K, 12577 kPa	0.09374 W/m/K
298.62 K, 12578 kPa	0.09384 W/m/K
298.7 K, 19323 kPa	0.09665 W/m/K
298.71 K, 19329 kPa	0.09658 W/m/K
298.72 K, 26079 kPa	0.09945 W/m/K
298.72 K, 26080 kPa	0.09952 W/m/K
298.73 K, 33915 kPa	0.1022 W/m/K
298.73 K, 33916 kPa	0.1019 W/m/K
298.74 K, 41639 kPa	0.1043 W/m/K
298.75 K, 41635 kPa	0.1043 W/m/K
299.08 K, 12562 kPa	0.09373 W/m/K
299.09 K, 12561 kPa	0.09382 W/m/K
299.09 K, 26077 kPa	0.09835 W/m/K
299.09 K, 26079 kPa	0.09892 W/m/K
299.09 K, 33913 kPa	0.1011 W/m/K
299.09 K, 33914 kPa	0.1013 W/m/K
299.09 K, 41634 kPa	0.1044 W/m/K
299.09 K, 41635 kPa	0.1044 W/m/K
299.1 K, 6675 kPa	0.09125 W/m/K
299.11 K, 6673 kPa	0.0912 W/m/K
299.11 K, 12580 kPa	0.0938 W/m/K
299.12 K, 12583 kPa	0.09382 W/m/K
299.14 K, 227 kPa	0.08804 W/m/K
299.14 K, 238 kPa	0.08799 W/m/K
299.19 K, 19316 kPa	0.09651 W/m/K
299.19 K, 19328 kPa	0.09648 W/m/K
299.48 K, 41634 kPa	0.1043 W/m/K
299.49 K, 33910 kPa	0.1012 W/m/K
299.49 K, 33912 kPa	0.1011 W/m/K
299.49 K, 41635 kPa	0.1042 W/m/K
299.5 K, 26073 kPa	0.09896 W/m/K
299.5 K, 26076 kPa	0.099 W/m/K
299.89 K, 41632 kPa	0.1042 W/m/K
299.9 K, 41629 kPa	0.1042 W/m/K
299.91 K, 33908 kPa	0.1013 W/m/K
299.92 K, 33910 kPa	0.1013 W/m/K
299.93 K, 26071 kPa	0.09862 W/m/K
299.93 K, 26073 kPa	0.09884 W/m/K
300.35 K, 41624 kPa	0.1042 W/m/K
300.35 K, 41629 kPa	0.1044 W/m/K
300.37 K, 33905 kPa	0.1015 W/m/K
300.38 K, 33907 kPa	0.1015 W/m/K
300.4 K, 26067 kPa	0.09874 W/m/K
300.41 K, 26067 kPa	0.09891 W/m/K
301.58 K, 62451 kPa	0.1103 W/m/K
301.58 K, 62455 kPa	0.11 W/m/K
301.59 K, 68041 kPa	0.1115 W/m/K
301.59 K, 68044 kPa	0.1115 W/m/K
301.6 K, 9757 kPa	0.09158 W/m/K
301.61 K, 9755 kPa	0.09136 W/m/K
301.62 K, 52493 kPa	0.1071 W/m/K
301.63 K, 4924 kPa	0.08962 W/m/K
301.63 K, 52493 kPa	0.1066 W/m/K
301.64 K, 4920 kPa	0.089 W/m/K
301.65 K, 27815 kPa	0.0982 W/m/K
301.65 K, 43573 kPa	0.1041 W/m/K
301.65 K, 43574 kPa	0.104 W/m/K
301.66 K, 27823 kPa	0.09824 W/m/K
301.66 K, 35535 kPa	0.1015 W/m/K
301.66 K, 35538 kPa	0.1014 W/m/K
301.67 K, 289 kPa	0.08665 W/m/K
301.67 K, 293 kPa	0.08649 W/m/K
301.69 K, 21591 kPa	0.09669 W/m/K
301.69 K, 21597 kPa	0.09656 W/m/K
301.75 K, 15353 kPa	0.09399 W/m/K
301.75 K, 15355 kPa	0.0941 W/m/K
301.92 K, 62442 kPa	0.11 W/m/K
301.92 K, 62448 kPa	0.1098 W/m/K
301.93 K, 68033 kPa	0.1115 W/m/K
301.93 K, 68038 kPa	0.1117 W/m/K
301.97 K, 52486 kPa	0.1073 W/m/K
301.97 K, 52491 kPa	0.107 W/m/K
301.98 K, 9757 kPa	0.09137 W/m/K
301.99 K, 9759 kPa	0.09137 W/m/K
302 K, 43569 kPa	0.104 W/m/K
302.01 K, 43570 kPa	0.1038 W/m/K
302.02 K, 35523 kPa	0.1016 W/m/K
302.02 K, 35525 kPa	0.1012 W/m/K
302.03 K, 4920 kPa	0.08894 W/m/K
302.03 K, 4923 kPa	0.08935 W/m/K
302.03 K, 27815 kPa	0.09838 W/m/K
302.03 K, 27819 kPa	0.09867 W/m/K
302.07 K, 299 kPa	0.08696 W/m/K
302.07 K, 21586 kPa	0.09614 W/m/K
302.07 K, 21589 kPa	0.09606 W/m/K
302.08 K, 296 kPa	0.0866 W/m/K
302.14 K, 15358 kPa	0.09347 W/m/K
302.14 K, 15361 kPa	0.09381 W/m/K
302.29 K, 62439 kPa	0.1101 W/m/K
302.29 K, 68021 kPa	0.1115 W/m/K
302.3 K, 62445 kPa	0.11 W/m/K
302.3 K, 68022 kPa	0.1116 W/m/K
302.36 K, 52487 kPa	0.1067 W/m/K
302.36 K, 52489 kPa	0.107 W/m/K
302.39 K, 43573 kPa	0.104 W/m/K
